In US20230212222A1 (ANYGEN CO., LTD., priority 2020, published 2023):

Tests used:
3T3-L1 cells = assay: lipolytic ability (secreted glycerol) in 3T3-L1 cells; format: cell-based
Description: (§1) In addition, lipolytic ability according to the HKFY-34 treatment by concentration (100 nM, 500 nM, […] (FIG. 84). When the signal of lipolysis is transmitted, lipid droplet glycerol and free fatty acid in adipocytes are secreted as final products and come out of the cell. At this time, the degree of lipolysis can be confirmed by quantifying the secreted glycerol. Isoproterenol, a positive control group, is an agonist of β-adrenergic receptors and mainly promotes lipolytic ability in adipocytes.

GPR39 KO mice = assay: glucose tolerance test in GPR39 KO mouse model induced by a high-fat diet; format: in vivo; conditions: 16, 17 and 18-week-old GPR39 KO mice, high-fat feed, 0.5, 1, 5 and 10 mg/kg subcutaneously
Description: In addition, the glucose tolerance level in the GPR39 KO mouse model induced by a high-fat diet according to the HKFY derivative treatment was analyzed (FIG. 91).
Specifically, obesity was induced by providing male GPR39 KO mice (6 to 7-week-old, Central Lab. Animal Inc.) with a high-fat feed (60% fat chow) for 5-6 weeks. HKFY-34 was administered subcutaneously at a concentration of 0.5, 1, 5 and 10 mg/kg, respectively, to the 16, 17 or 18-week-old GPR39 KO mice, in which obesity was induced. After 30 minutes, glucose (1.5 g/kg) was intraperitoneally administered. After 0, 15, 30, 45, 60, 90, 120 and 180 minutes, blood was collected from the tail of the mice, and the blood glucose was measured with a blood glucose meter (acc-check, Roche, Germany) to analyze the glucose tolerance.

db/db mice [1] = assay: drop in blood glucose level in mouse model of diabetes mellitus disease; format: in vivo
Description: The drop in blood glucose level in a mouse model of diabetes mellitus disease according to the HKFY derivative treatment was analyzed (FIG. 92).
Specifically, HKFY-34 was subcutaneously administered at a concentration of 0.5, 1, 5 and 10 mg/kg, respectively, to male db/db mice (5 to 7-week-old), which is a mouse model of diabetes mellitus disease. After 0, 1, 2, 4, 6, 8, 12, 18 and 24 hours, blood was collected from the tail of the mice, and the blood glucose was measured with a blood glucose meter (acc-check, Roche, Germany) to confirm the anti-diabetic effect.

[2] = test system: HSL, ATGL and Perilipin A in 3T3-L1 cells; assay: mRNA expression of lipolysis signaling factors by RT-PCR in 3T3-L1 cells; format: cell-based; conditions: versus isoproterenol positive control
Description: (§2) In addition, the mRNA expression levels of HSL (hormone-sensitive lipase), ATGL (adipose triglyceride lipase) and Perilipin A, which are important factors for lipolysis signaling according to HKFY-34 treatment, were analyzed through RT-PCR (FIG. 79). […] In addition, it was confirmed that the mRNA expression of all factors was enhanced due to GPR39 through GPR39 siRNA (FIGS. 81 to 83).

GPR39 = target: T1, GPR39 (Homo sapiens, UniProt O43194); assay: calcium influx assay system (aequorin) in CV-1 cells; format: cell-based; design: host or cells: CV-1 fibroblast cell line, lipofectamine transfection; conditions: CV-1 cells transfected with human GPR39, Gαq, 6 hours
T1 sequence (O43194 1-453): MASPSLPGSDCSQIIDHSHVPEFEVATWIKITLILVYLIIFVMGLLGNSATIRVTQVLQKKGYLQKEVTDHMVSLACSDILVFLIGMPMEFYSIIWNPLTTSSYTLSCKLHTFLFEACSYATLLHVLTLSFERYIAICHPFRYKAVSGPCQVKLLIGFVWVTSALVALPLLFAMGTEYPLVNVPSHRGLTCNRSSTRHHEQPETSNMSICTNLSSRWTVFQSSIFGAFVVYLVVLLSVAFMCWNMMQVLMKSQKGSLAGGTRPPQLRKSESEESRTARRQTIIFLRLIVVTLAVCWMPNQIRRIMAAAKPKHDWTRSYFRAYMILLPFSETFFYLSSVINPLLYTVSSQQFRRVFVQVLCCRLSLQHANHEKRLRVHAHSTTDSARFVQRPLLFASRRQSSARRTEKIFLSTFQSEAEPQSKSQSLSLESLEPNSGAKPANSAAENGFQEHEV

[3] = test system: HSL, ATGL and Perilipin A in WAT cells; assay: mRNA expression of lipolysis signaling factors by RT-PCR in WAT; format: cell-based, mice; conditions: versus isoproterenol positive control
Description: as §2

db/db mice [4] = assay: blood insulin level in mouse model of diabetes mellitus disease (mouse ELISA); format: in vivo
Description: In addition, the blood insulin level was analyzed simultaneously with the glucose tolerance test for the mouse model of diabetes mellitus disease (FIG. 88).
Specifically, after 0, 15, 30, 60, 90, 120 and 180 minutes, blood was collected from the orbital veins of mice, and the insulin level in plasma was analyzed using mouse ELISA.

rat islet = assay: glucose-dependent insulin secretion in isolated rat islets (rat insulin ELISA); format: cell-based; conditions: 1 nM to 100 μM, 2.8 mM or 28 mM glucose
Description: In addition, the glucose-dependent insulin secretion ability of the HKFY derivative for rat islet was confirmed (FIG. 76).
Specifically, the pancreas was extracted from a 8-week-old SD rat (Damul Science), and islets were isolated. The isolated islets were treated with HKFY-34 at different concentrations (1 nM, 10 nM, 100 nM, 1 μM, 10 μM and 100 μM) in 2.8 mM or 28 mM glucose, and then the amount of the secreted insulin was measured using a rat insulin ELISA.

[5] = test system: adipose tissue (white adipose tissue, WAT); assay: lipolytic ability (secreted glycerol) in adipose tissue (WAT); format: cell-based, mice
Description: as §1

[6] = test system: pERK and pPKA in 3T3-L1 cells; assay: pERK and pPKA expression by western blot in 3T3-L1 cells; format: cell-based; conditions: FIG. 85
Description: In order to analyze the mechanism of lipolytic ability according to the HKFY derivative treatment in 3T3-L1 cells and WAT cells, the expression levels of pERK and pPKA were analyzed (FIGS. 85 and 86).
Specifically, protein was purified from 3T3L-1 cells (Korea Cell Line Bank) and WAT (tissue culture using mice purchased from Central Lab. Animal Inc.) treated with the HKFY derivatives, and then each antibody for pERK, ERK, pPKA, and PKA expressed in mice was used, and the expression level of each protein due to the derivatives was measured through western blot.

[7] = HKFY-34 concentration 10 μM or higher

## CCCCCCCC(=O)NCCCC[C@H](NC(=O)[C@@H](N)Cc1cn(C(c2ccccc2)c2ccccc2)cn1)C(=O)N[C@H](Cc1ccc(C)cc1)C(=O)N[C@@H](Cc1ccc(O)cc1)C(=O)O [HKFY-34, ((R)-2-((S)-2-((S)-2-amino-3-(1-benzhydryl-1H-imidazol-4-yl)propanamido)-6-octanamidohexanamido)-3-(p-tolyl)propanoyl)-L-tyrosine]
3T3-L1 cells; [7]
  lipolytic ability: significantly increased
3T3-L1 cells; by concentration, FIG. 84
  lipolytic ability: increased in a concentration dependent manner
GPR39 KO mice
  glucose tolerance: significant glucose tolerance was not observed
db/db mice [1]; db/db mice, 0.5, 1, 5 and 10 mg/kg subcutaneously, 0 to 24 hours
  effect of drop in blood glucose level: exhibited in a concentration-dependent manner
db/db mice [1]; db/db mice, 5 and 10 mg/kg
  effect of drop in blood glucose: significantly increased
[2]
  mRNA expression of ATGL: increased to a degree similar to that of isoproterenol
  mRNA expression of HSL: increased to a degree similar to that of isoproterenol
  mRNA expression of Perilipin A: increased to a degree similar to that of isoproterenol
GPR39
  Ca2+ influx assay ECmax (-fold induction over basal): 2.4 ± 4.59 -fold induction over basal
GPR39; read-out: Ca2+ influx assay EC50
  EC50: 2.7 ± 0.5 nM
[3]
  mRNA expression of ATGL: increased to a degree similar to that of isoproterenol
  mRNA expression of HSL: increased to a degree similar to that of isoproterenol
  mRNA expression of Perilipin A: increased to a degree similar to that of isoproterenol
db/db mice [4]; db/db mice, 0.5, 1, 5 and 10 mg/kg subcutaneously
  insulin secretion (plasma insulin level): increased in a concentration dependent manner
db/db mice [4]; db/db mice, 5 and 10 mg/kg
  insulin secretion level: significantly increased
Rat islet
  insulin secretion ability: concentration dependent (dose-dependent) manner
[5]; [7]
  lipolytic ability: significantly increased
[5]; by concentration, FIG. 84
  lipolytic ability: increased in a concentration dependent manner
[6]
  expression of pERK compared to ERK: increased
  expression of pPKA compared to PKA: increased
